Assay results published in patent US20250091994A1, “RAS/RAF BINDING INHIBITOR COMPOUND” (NATIONAL UNIVERSITY CORPORATION KOBE UNIVERSITY, priority 2021, published 2025).

Columns and labels:
Format in all cases: cell-based
[1] = tested on: large bowel cancer cells SW480 (K-RasG12V); assay: Cell growth inhibition, adherent cells SW480; conditions: Homo sapiens, 72 hours, read-out: SW480 (KRasG12V) % inhibition at 10 μM
Method: (§1) The cell growth inhibitory activity of the compound of the present invention on human culture cells having active-type mutation in Ras was evaluated by the below-mentioned method using suspension cancer cells {acute lymphoblastic leukemia cells CCRF-CEM (K-RasG12D), promyelocytic leukemia cells HL60 (N-RasQ61L), acute lymphoblastic leukemia cells MOLT4 (N-RasG12C), and small cell lung cancer cells SHP77 (K-RasG12V)} and adherent cancer cells {large bowel cancer cells SW480 (K-RasG12V) and large bowel cancer cell SW620 (K-RasG12V)}.
(Case of adherent cells) The cells suspended in a medium containing 10% FBS (1 to 2×10^4 cells/well) were seeded on a 96-well plate, and were then cultured at 37° C. in the presence of […]. Thereafter, the medium was exchanged with a medium containing […], to which each compound solution (final DMSO concentration: […]) had been added, and the cells were then cultured at 37° C. in the presence of […] for 72 hours.
(§2) Thereafter, the number of viable cells was measured using Cell Counting Reagent (Nacalai Tesque) in accordance with the manufacturer's instructions. Inhibition by the test compound was determined according to the following equation: […]

[2] = tested on: Vemurafenib-resistant malignant melanoma cells HT 144R (BRafV600E); assay: Cell growth inhibition, drug-resistant malignant melanoma HT144R; conditions: Homo sapiens, in the presence of 1 μM PLX (Vemurafenib), 72 hours
Method: (§3) The human malignant melanoma cell lines A375 and HT 144, each having BRafV600E mutation, were cultured in a medium containing 10% FBS at 37° C. in the presence of 5% CO2. At the time point in which the cells became confluent, 1 μM Vemurafenib, a BRaf inhibitor, was added to the medium, and the cells were then cultured in the presence of Vemurafenib for 1 month or more (during which the medium was exchanged every 1 week), so as to acquire Vemurafenib-resistant malignant melanoma cells A375R and HT 144R. The resulting resistant cells were suspended in a medium containing 10% FBS, and then seeded on a 96-well plate to an amount of 1 to 2×10^4 cells/well. The cells were cultured at 37° C. in the presence of 5% CO2 overnight. Thereafter, the medium was exchanged with a medium containing 0.5% FBS, to which each compound solution (final DMSO concentration: 1%) and 1 μM Vemurafenib had been added, and the cells were then cultured at 37° C. in the presence of 5% CO2 for 72 hours.
as §2
(§4) Hereafter, Inhibition (%) by 3.3 μM compound is shown.

[3] = tested on: acute lymphoblastic leukemia cells CCRF-CEM (K-RasG12D); assay: Cell growth inhibition, suspension cells CCRF-CEM; conditions: Homo sapiens, 1 μM, 72 hours, read-out: CCRF-CEM (KRasG12D) % inhibition at 1 μM
Procedure, shortened: (§5)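 Suspension cells, 2 to 4×10^4 per well, cultured with compound in medium with 0.5% FBS (1% DMSO final) for 72 h at 37° C, 5% CO2. Viable cells counted with Cell Counting Reagent; inhibition calculated relative to controls.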

[4] = tested on: Vemurafenib-resistant malignant melanoma cells A375R (BRafV600E); assay: Cell growth inhibition, drug-resistant malignant melanoma A375R; conditions: Homo sapiens, in the presence of 1 μM PLX (Vemurafenib), 72 hours
Method: as §3, §2, §4

[5] = tested on: large bowel cancer cell SW620 (K-RasG12V); assay: Cell growth inhibition, adherent cells SW620; conditions: Homo sapiens, SW-620; 1 μM, 72 hours; read-out: SW620 (KRasG12V) % inhibition at 1 μM
Procedure, shortened: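 Adherent cells, 1 to 2×10^4 per well, grown overnight in 10% FBS, then exposed to compound in low-serum medium […] for 72 h at 37° C. Viable cells counted with Cell Counting Reagent; inhibition calculated relative to controls.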

[6] = tested on: phosphorylated MEK (pMEK) in HL60 cells; assay: Ras-Raf signaling inhibition at culture cell level, pMEK; conditions: Homo sapiens, HL-60; HL60 (N-RasQ61L), 1 μM test compound, 3 hours
Method: (§6) The Ras-Raf signaling inhibitory activity of the compound of the present invention at a culture cell level was evaluated by the following method.
(§7) The HL60 cells described in Test Example 2 suspended in a medium containing 0.5% (v/v) FBS with each compound solution (final DMSO concentration: 1%), were seeded on a 12-well plate (2 to 4×10^5 cells/well), and the resulting mixture was then cultured at 37° C. in the presence of 5% CO2 for 3 hours.
(§8) After completion of the cell culture, proteins were extracted from the cells, using RIPA Buffer (Nacalai Tesque) containing a mixture of protease inhibitors and phosphatase inhibitors. An equivalent amount of protein was separated by standard SDS-PAGE and was then transferred onto a PVDF membrane. In order to detect the activation (phosphorylation) of MEK and ERK, downstream molecules of the Ras-Raf signaling pathway, the membrane was probed with 1000-fold diluted primary antibodies {phosphorylated MEK (pMEK: #9121), phosphorylated ERK (pERK: #9101), total MEK (tMEK: #9122), and total ERK (tERK: 9102); all from Cell signaling}, and then with a 1000-fold diluted horseradish peroxidase-labeled secondary antibody against rabbit immunoglobulin G. The immunoreactive signals were colored with EzWestLumi One (ATTO), and were then detected by Fusion FX (Vilber). Signal intensity was quantified by pixel counting. Inhibition by the test compound was determined according to the following equation: […]

[7] = tested on: small cell lung cancer cells SHP77 (K-RasG12V); assay: Cell growth inhibition, suspension cells SHP77; conditions: Homo sapiens, 1 μM, 72 hours, read-out: SHP77 (KRasG12V) % inhibition at 1 μM
Method: as §1
(§9) (Case of suspension cells) The cells suspended in a medium containing 0.5% (v/v) fetal bovine serum (FBS) and each compound solution (final DMSO concentration: 1%) were seeded on a 96-well plate (2 to 4×10^4 cells/well), and the resulting mixture was then cultured at 37° C. in the presence of 5% CO2 for 72 hours.
as §2

[8] = tested on: acute lymphoblastic leukemia cells MOLT4 (N-RasG12C); assay: Cell growth inhibition, suspension cells MOLT4; conditions: Homo sapiens, MOLT-4; 3.3 μM (*), 72 hours; read-out: MOLT-4 (NRasG12C) % inhibition at 3.3 μM (*)
Method: as §1, §9, §2

[9] = tested on: phosphorylated ERK (pERK) in HL60 cells; assay: Ras-Raf signaling inhibition at culture cell level, pERK; conditions: Homo sapiens, HL-60; HL60 (N-RasQ61L), 1 μM test compound, 3 hours
Method: as §6, §7, §8

[10] = tested on: promyelocytic leukemia cells HL60 (N-RasQ61L); assay: Cell growth inhibition, suspension cells HL60; conditions: Homo sapiens, HL-60; 10 μM (***), 72 hours; read-out: HL-60 (NRasQ61L) % inhibition at 10 μM (***)
Procedure, shortened: as §5

`COc1cc(/C=C2/C(=O)c3ccccc3N2C(C)=O)ccc1OCC(N)=O` [Example 1, (Z)-2-(4-((1-acetyl-3-oxoindolin-2-ylidene)methyl)-2-methoxyphenoxy)-acetamide] was tested, and the inhibition at 10 µM [1] was 50%, the inhibition at 3.3 µM [2] was 66% and the inhibition at 1 µM [3] was 51%. The inhibition at 3.3 µM [4] was 28%, the inhibition at 1 µM [5] was 53% and the inhibition at 1 µM [6] was 30%. The inhibition at 1 µM [7] was 73%, the inhibition at 3.3 µM [8] was 88% and the inhibition at 1 µM [9] was 61%. The inhibition at 10 µM [10] was 95%.
